Data: PMC7470115, “Design, synthesis and biological evaluation of novel tetrahydrothieno [2,3-c]pyridine substitued benzoyl thiourea derivatives as PAK1 inhibitors in triple negative breast cancer” (Journal of Enzyme Inhibition and Medicinal Chemistry, 2020)

What follows are compounds tested against PAK1 (Homo sapiens, UniProt Q13153) (assay: PAK1 enzymatic assay (Kinase-Glo Plus / ADP-Glo luminescence)). Details: tested in triplicate, mean ± SD; 50 µM ATP; read-out: Kinase inhibitory activity (IC50, μM) PAK1.
PAK1, sequence (Q13153 whole entry): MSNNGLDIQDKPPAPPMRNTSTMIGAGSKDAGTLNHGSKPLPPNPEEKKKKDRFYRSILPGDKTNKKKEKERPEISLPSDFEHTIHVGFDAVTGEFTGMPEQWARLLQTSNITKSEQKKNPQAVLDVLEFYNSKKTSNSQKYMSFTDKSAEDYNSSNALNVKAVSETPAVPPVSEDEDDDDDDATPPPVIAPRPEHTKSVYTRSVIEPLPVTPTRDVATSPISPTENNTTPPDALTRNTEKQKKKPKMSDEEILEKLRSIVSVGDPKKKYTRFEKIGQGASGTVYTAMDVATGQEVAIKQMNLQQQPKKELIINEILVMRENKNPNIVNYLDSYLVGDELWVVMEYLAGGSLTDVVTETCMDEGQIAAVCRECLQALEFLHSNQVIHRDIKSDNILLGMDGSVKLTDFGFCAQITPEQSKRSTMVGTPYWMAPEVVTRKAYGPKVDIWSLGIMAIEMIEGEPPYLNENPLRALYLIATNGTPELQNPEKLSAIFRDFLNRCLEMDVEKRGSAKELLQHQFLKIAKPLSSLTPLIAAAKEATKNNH
Assay type: biochemical
Experimental: These assays were carried out as described previously. All of the enzymatic reactions were conducted at 30 °C for 40 min. The 50 µl reaction mixture contains 40 mM Tris, pH 7.4, 10 mM MgCl2, 0.1 mg/ml BSA, 1 mM DTT, 50 µM ATP, 0.2 μg/ml PAK1 and 100 uM lipid substrate. The compounds were diluted in 10% DMSO and 5 µl of the dilution was added to a 50 µl reaction so that the final concentration of DMSO is 1% in all of the reactions. The assay was performed using the Kinase-Glo Plus luminescence kinase assay kit and ADP-Glo Plus luminescence kinase assay kit. It measures kinase activity by quantitating the amount of ATP remaining in solution following a kinase reaction. The luminescent signal from the assay is correlated with the amount of ATP present and is inversely correlated with the amount of kinase activity. The IC50 values were calculated using nonlinear regression with normalised dose − response fit using Prism GraphPad software.

Structure (SMILES) | IC50 [µM]
CC(C)(C)OC(=O)N1CCc2c(sc(NC(=S)NC(=O)c3ccccc3)c2C(N)=O)C1 [Compound 5a, Tert-butyl-2–(3-benzoylthioureido)-3-carbamoyl-4,7-dihydrothieno[2,3-c]pyridine-6(5H)-carboxylate] | 7.64 ± 0.72
Cc1ccc(C(=O)NC(=S)Nc2sc3c(c2C(N)=O)CCN(C(=O)OC(C)(C)C)C3)cc1 [Compound 5b, Tert-butyl-3-carbamoyl-2–(3-(4-methylbenzoyl)thioureido)-4,7-dihydrothieno[2,3-c]pyridine-6(5H)-carboxylate] | 7.28 ± 0.78
Cc1ccccc1C(=O)NC(=S)Nc1sc2c(c1C(N)=O)CCN(C(=O)OC(C)(C)C)C2 [Compound 5c, Tert-butyl-3-carbamoyl-2–(3-(2-methylbenzoyl)thioureido)-4,7-dihydrothieno[2,3-c]pyridine-6(5H)-carboxylate] | 6.21 ± 0.69
Cc1cccc(C(=O)NC(=S)Nc2sc3c(c2C(N)=O)CCN(C(=O)OC(C)(C)C)C3)c1 [Compound 5d, Tert-butyl-3-carbamoyl-2–(3-(3-methylbenzoyl)thioureido)-4,7-dihydrothieno[2,3-c]pyridine-6(5H)-carboxylate] | 4.32 ± 0.51
Cc1cc(C)c(C(=O)NC(=S)Nc2sc3c(c2C(N)=O)CCN(C(=O)OC(C)(C)C)C3)c(C)c1 [Compound 5e, Tert-butyl-3-carbamoyl-2–(3-(2,4,6-trimethylbenzoyl)thioureido)-4,7-dihydrothieno[2,3-c]pyridine-6(5H)-carboxylate] | 11.2 ± 1.01
COc1ccc(C(=O)NC(=S)Nc2sc3c(c2C(N)=O)CCN(C(=O)OC(C)(C)C)C3)cc1 [Compound 5f, Tert-butyl-3-carbamoyl-2–(3-(4-methoxybenzoyl)thioureido)-4,7-dihydrothieno[2,3-c]pyridine-6(5H)-carboxylate] | 16.4 ± 1.78
CC(C)(C)OC(=O)N1CCc2c(sc(NC(=S)NC(=O)c3ccc(Br)cc3)c2C(N)=O)C1 [Compound 5g, Tert-butyl-2–(3-(4-bromobenzoyl)thioureido)-3-carbamoyl-4,7-dihydrothieno[2,3-c]pyridine-6(5H)-carboxylate] | 9.35 ± 0.97
CC(C)(C)OC(=O)N1CCc2c(sc(NC(=S)NC(=O)c3ccc(F)cc3)c2C(N)=O)C1 [Compound 5h, Tert-butyl-3-carbamoyl-2–(3-(4-fluorobenzoyl)thioureido)-4,7-dihydrothieno[2,3-c]pyridine-6(5H)-carboxylate] | 5.33 ± 0.65
CC(C)(C)OC(=O)N1CCc2c(sc(NC(=S)NC(=O)c3ccccc3F)c2C(N)=O)C1 [Compound 5i, Tert-butyl-3-carbamoyl-2–(3-(2-fluorobenzoyl)thioureido)-4,7-dihydrothieno[2,3-c]pyridine-6(5H)-carboxylate] | 7.82 ± 0.71
CC(C)(C)OC(=O)N1CCc2c(sc(NC(=S)NC(=O)c3ccc(Cl)cc3)c2C(N)=O)C1 [Compound 5j, Tert-butyl-3-carbamoyl-2–(3-(4-chlorobenzoyl)thioureido)-4,7-dihydrothieno[2,3-c]pyridine-6(5H)-carboxylate] | 9.12 ± 0.95
CC(C)(C)OC(=O)N1CCc2c(sc(NC(=S)NC(=O)c3ccccc3Cl)c2C(N)=O)C1 [Compound 5k, Tert-butyl-3-carbamoyl-2–(3-(2-chlorobenzoyl)thioureido)-4,7-dihydrothieno[2,3-c]pyridine-6(5H)-carboxylate] | 8.65 ± 0.93
CC(C)(C)OC(=O)N1CCc2c(sc(NC(=S)NC(=O)c3cccc(Cl)c3)c2C(N)=O)C1 [Compound 5l, Tert-butyl-3-carbamoyl-2–(3-(3-chlorobenzoyl)thioureido)-4,7-dihydrothieno[2,3-c]pyridine-6(5H)-carboxylate] | 5.15 ± 0.54
CC(C)(C)OC(=O)N1CCc2c(sc(NC(=S)NC(=O)c3cccc(C(F)(F)F)c3)c2C(N)=O)C1 [Compound 5m, Tert-butyl-3-carbamoyl-2–(3-(3-(trifluoromethyl)benzoyl)thioureido)-4,7-dihydrothieno[2,3-c]pyridine-6(5H)-carboxylate] | 2.02 ± 0.27
CC(C)(C)OC(=O)N1CCc2c(sc(NC(=S)NC(=O)c3ccc(C(F)(F)F)cc3)c2C(N)=O)C1 [Compound 5n, Tert-butyl-3-carbamoyl-2–(3-(4-(trifluoromethyl)benzoyl)thioureido)-4,7-dihydrothieno[2,3-c]pyridine-6(5H)-carboxylate] | 12.1 ± 1.35
CC(C)(C)OC(=O)N1CCc2c(sc(NC(=S)NC(=O)c3cccc(Cl)c3Cl)c2C(N)=O)C1 [Compound 5o, Tert-butyl-3-carbamoyl-2–(3-(2,3-dichlorobenzoyl)thioureido)-4,7-dihydrothieno[2,3-c]pyridine-6(5H)-carboxylate] | 7.43 ± 0.81
CC(C)(C)OC(=O)N1CCc2c(sc(NC(=S)NC(=O)C3CCCCC3)c2C(N)=O)C1 [Compound 5p, Tert-butyl-3-carbamoyl-2–(3-(cyclohexanecarbonyl)thioureido)-4,7-dihydrothieno[2,3-c]pyridine-6(5H)-carboxylate] | 19.3 ± 1.85
CC(C)(C)OC(=O)N1CCc2c(sc(NC(=S)NC(=O)Cc3cccs3)c2C(N)=O)C1 [Compound 5q, Tert-butyl-3-carbamoyl-2–(3-(2-(thiophen-2-yl)acetyl)thioureido)-4,7-dihydrothieno[2,3-c]pyridine-6(5H)-carboxylate] | 15.6 ± 1.64

Second part, the compound after the results:

IC50 [µM] | Structure (SMILES)
10.2 ± 1.13 | Cc1ccccc1C(=O)N1CCc2c(sc(NC(=S)NC(=O)c3cccc(C(F)(F)F)c3)c2C(N)=O)C1 [Compound 7a, 6–(2-methylbenzoyl)-2–(3-(3-(trifluoromethyl)benzoyl)thioureido)-4,5,6,7-tetrahydrothieno[2,3-c]pyridine-3-carboxamide]
13.2 ± 1.39 | NC(=O)c1c(NC(=S)NC(=O)c2cccc(C(F)(F)F)c2)sc2c1CCN(C(=O)c1ccc(Cl)cc1)C2 [Compound 7b, 6–(4-chlorobenzoyl)-2–(3-(3-(trifluoromethyl)benzoyl)thioureido)-4,5,6,7-tetrahydrothieno[2,3-c]pyridine-3-carboxamide]
3.08 ± 0.29 | CC(C)C(=O)N1CCc2c(sc(NC(=S)NC(=O)c3cccc(C(F)(F)F)c3)c2C(N)=O)C1 [Compound 7e, 6-isobutyryl-2–(3-(3-(trifluoromethyl)benzoyl)thioureido)-4,5,6,7-tetrahydrothieno[2,3-c]pyridine-3-carboxamide]
3.87 ± 0.35 | CC(C)CC(=O)N1CCc2c(sc(NC(=S)NC(=O)c3cccc(C(F)(F)F)c3)c2C(N)=O)C1 [Compound 7f, 6–(3-methylbutanoyl)-2–(3-(3-(trifluoromethyl)benzoyl)thioureido)-4,5,6,7-tetrahydrothieno[2,3-c]pyridine-3-carboxamide]
5.75 ± 0.63 | NC(=O)c1c(NC(=S)NC(=O)c2cccc(C(F)(F)F)c2)sc2c1CCN(C(=O)CCCl)C2 [Compound 7g, 6–(3-chloropropanoyl)-2–(3-(3-(trifluoromethyl)benzoyl)thioureido)-4,5,6,7-tetrahydrothieno[2,3-c]pyridine-3-carboxamide]
4.14 ± 0.51 | C/C=C/C(=O)N1CCc2c(sc(NC(=S)NC(=O)c3cccc(C(F)(F)F)c3)c2C(N)=O)C1 [Compound 7h, (E)-6-(but-2-enoyl)-2–(3-(3-(trifluoromethyl)benzoyl)thioureido)-4,5,6,7-tetrahydrothieno[2,3-c]pyridine-3-carboxamide]
3.42 ± 0.33 | C=C(C)C(=O)N1CCc2c(sc(NC(=S)NC(=O)c3cccc(C(F)(F)F)c3)c2C(N)=O)C1 [Compound 7i, 6-methacryloyl-2–(3-(3-(trifluoromethyl)benzoyl)thioureido)-4,5,6,7-tetrahydrothieno[2,3-c]pyridine-3-carboxamide]
0.68 ± 0.07 | NC(=O)c1c(NC(=S)NC(=O)c2cccc(C(F)(F)F)c2)sc2c1CCN(C(=O)C1CCC1)C2 [Compound 7k, 6-(cyclobutanecarbonyl)-2–(3-(3-(trifluoromethyl)benzoyl)thioureido)-4,5,6,7-tetrahydrothieno[2,3-c]pyridine-3-carboxamide]
1.09 ± 0.09 | NC(=O)c1c(NC(=S)NC(=O)c2cccc(C(F)(F)F)c2)sc2c1CCN(C(=O)C1CCCC1)C2 [Compound 7l, 6-(cyclopentanecarbonyl)-2–(3-(3-(trifluoromethyl)benzoyl)thioureido)-4,5,6,7-tetrahydrothieno[2,3-c]pyridine-3-carboxamide]
4.55 ± 0.51 | NC(=O)c1c(NC(=S)NC(=O)c2cccc(C(F)(F)F)c2)sc2c1CCN(C(=O)C1CCCCC1)C2 [Compound 7m, 6-(cyclohexanecarbonyl)-2–(3-(3-(trifluoromethyl)benzoyl)thioureido)-4,5,6,7-tetrahydrothieno[2,3-c]pyridine-3-carboxamide]
4.87 ± 0.65 | NC(=O)c1c(NC(=S)NC(=O)c2cccc(C(F)(F)F)c2)sc2c1CCN(C(=O)C1CCOCC1)C2 [Compound 7n, 6-(tetrahydro-2H-pyran-4-carbonyl)-2–(3-(3-(trifluoromethyl)benzoyl)thioureido)-4,5,6,7-tetrahydrothieno[2,3-c]pyridine-3-carboxamide]
